Source: paper PMC5063977 (The Journal of Biological Chemistry, 2016)

Assays:
[1] = biological target: T1, RAMP1-CLR (CGRP receptor) (Homo sapiens, UniProt O60894+Q16602); test: S. cerevisiae growth assay, GPA1/Gαi chimera, RAMP1 + CLR; type: cell-based; conditions: percentage of yeast strain MMY11 (lacking GPA1); 20 h; mean ± S.E., n = 6
T1 construct: FLAG; expressed in transfected cells; host or cells: HEK-293 or HEK-293S cells, transient transfection, 1:1 RAMP:CLR
Experimental: FIGURE 3. […] Reporter gene activity was determined following 20 h of stimulation.
General yeast procedures were performed as described previously ([22], [24]). The human CLR was introduced into yeast cells under the control of the PGK promoter using a plasmid containing ura3 (pDT-PGK). The three human RAMPs were introduced into yeast under the control of the GAPDH promoter using plasmids containing leu2 (p425-GPD) ([25]). S. cerevisiae dual reporter strains expressing chimeras of yeast GPA1(1–467) (GPA1/Gα) with the five C-terminal amino acids of […] human G proteins representing Gαs, Gα16, Gαq, Gαo, Gαi1/2, Gαi3, Gαz, Gα12, Gα13, and Gα14 (MMY84–MMY93) were used in this study ([52]). […] Receptor signaling was measured using the yeast growth assay as described previously ([24]). […] A fluorescein signal was detected as an increase in fluorescence (excitation wavelength = 485 nm, emission wavelength = 535 nm) as a measure of growth. Different concentrations of ligand (0.01 nM–100 μM) were assayed using 96-well plates, and fluorescence was detected using a Tecan Infinite M200 microplate reader (Tecan Ultra Evolution, Reading, UK) or a Mithras LB 940 microplate reader (Berthold Technologies, Harpenden, UK) for 20 h. […]

RAMP3-CLR (AM2 receptor) = biological target: T2, RAMP3-CLR (AM2 receptor) (Homo sapiens, UniProt O60896+Q16602); test: (Ca^2+)i mobilization, HEK-293S cells, RAMP3 + CLR; type: cell-based; conditions: HEK293S, percentage of maximal (Ca^2+)i release with 10 μM ionomycin, mean ± S.E., n = 5
T2 construct: FLAG; expressed in transfected cells; host or cells: HEK-293 or HEK-293S cells, transient transfection, 1:1 RAMP:CLR
Experimental: HEK-293 cells, provided by Dr. Jügen Müller (University of Aston), were cultured in DMEM supplemented with 10% heat-inactivated FBS and kept at 37 °C in a humidified 95% air, 5% CO2 incubator. HEK-293S cells (a gift from AstraZeneca) were cultured in DMEM supplemented with 8% heat-inactivated FBS and kept at 37 °C in a humidified 95% air, 5% CO2 incubator. HEK-293 cells were transfected with FuGENE 6 (Roche Applied Science) in accordance with the manufacturer's instructions using a 1:3 (w:v) DNA:FuGENE ratio and a 1:1 ratio of RAMP to CLR. HEK-293S cells were seeded into 96-well poly-D-lysine-coated plates at a density of 15,000 cells/well (determined using a Countess^TM cell counter, Invitrogen) 1 day prior to transfection. HEK-293S cells were transiently transfected as described previously ([38]) using a 1:1 ratio of RAMP to CLR. The transfected cell lines were grown for 24–48 h prior to assaying.
Transfected HEK-293 cells were grown to confluence in black, clear bottomed, 96-well plates. […] Ligands were added robotically using a Mithras LB 940 multimode microplate reader in the range of 10 pM to 1 μM, and fluorescence was determined immediately post-injection with an excitation wavelength set to 485 nm and an emission wavelength set to 535 nm. […] Peak magnitude was calculated using five-point smoothing followed by correction against background fluorescence. […]

T2 sequence (Q16602 23-461): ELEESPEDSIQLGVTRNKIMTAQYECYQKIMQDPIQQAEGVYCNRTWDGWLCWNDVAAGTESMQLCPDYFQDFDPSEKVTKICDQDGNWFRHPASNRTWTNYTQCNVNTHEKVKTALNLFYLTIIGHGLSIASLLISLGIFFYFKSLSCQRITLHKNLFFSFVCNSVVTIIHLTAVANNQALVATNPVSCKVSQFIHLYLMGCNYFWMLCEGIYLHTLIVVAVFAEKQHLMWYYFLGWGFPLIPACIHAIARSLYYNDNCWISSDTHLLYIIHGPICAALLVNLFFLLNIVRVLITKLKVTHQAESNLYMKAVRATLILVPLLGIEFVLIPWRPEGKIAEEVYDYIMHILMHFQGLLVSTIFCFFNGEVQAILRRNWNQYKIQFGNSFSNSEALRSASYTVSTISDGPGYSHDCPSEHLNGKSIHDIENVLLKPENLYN
T2 sequence (O60896 24-148): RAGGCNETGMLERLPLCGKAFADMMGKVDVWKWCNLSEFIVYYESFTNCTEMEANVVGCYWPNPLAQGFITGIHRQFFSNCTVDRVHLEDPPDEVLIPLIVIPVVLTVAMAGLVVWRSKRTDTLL
T1 sequence (Q16602 23-461): as the sequence (Q16602 23-461) above
T1 sequence (O60894 27-148): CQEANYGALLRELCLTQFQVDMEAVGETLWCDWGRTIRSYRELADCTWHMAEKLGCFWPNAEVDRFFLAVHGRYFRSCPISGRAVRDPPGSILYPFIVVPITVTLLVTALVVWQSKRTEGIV

Emax [1]	Emax (RAMP3-CLR (AM2 receptor))	SMILES
41.5 ± 3.3%	20.1 ± 4.3%	CSCC[C@H](NC(=O)[C@H](CC(C)C)NC(=O)[C@H](CCC(N)=O)NC(=O)[C@H](Cc1c[nH]c2ccccc12)NC(=O)[C@H](CC(C)C)NC(=O)[C@H](CCCNC(=N)N)NC(=O)[C@H](Cc1c[nH]cn1)NC(=O)[C@H](CO)NC(=O)[C@H](CC(C)C)NC(=O)[C@H](CC(N)=O)NC(=O)[C@H](CCC(N)=O)NC(=O)[C@@H](NC(=O)[C@H](CCC(N)=O)NC(=O)[C@@H]1CSSC[C@H](NC(=O)CNC(=O)[C@@H](NC(=O)[C@H](CCCNC(=N)N)NC(=O)[C@H](CC(C)C)NC(=O)[C@H](CC(C)C)NC(=O)[C@H](CCC(N)=O)NC(=O)[C@H](C)NC(=O)[C@H](CCC(N)=O)NC(=O)[C@@H](N)[C@@H](C)O)C(C)C)C(=O)N[C@@H](C(C)C)C(=O)N[C@@H](CC(C)C)C(=O)NCC(=O)N[C@@H]([C@@H](C)O)C(=O)N1)C(C)C)C(=O)NCC(=O)N1CCC[C@H]1C(=O)N[C@@H](C)C(=O)NCC(=O)N[C@@H](CCCNC(=N)N)C(=O)N[C@@H](CCC(N)=O)C(=O)N[C@@H](CC(=O)O)C(=O)N[C@@H](CO)C(=O)N[C@@H](C)C(=O)N1CCC[C@H]1C(=O)N[C@H](C(=O)N[C@@H](CC(=O)O)C(=O)N1CCC[C@H]1C(=O)N[C@@H](CO)C(=O)N[C@@H](CO)C(=O)N1CCC[C@H]1C(=O)N[C@@H](Cc1c[nH]cn1)C(=O)N[C@@H](CO)C(=O)N[C@@H](Cc1ccc(O)cc1)C(N)=O)C(C)C [AM2, adrenomedullin 2]
34.2 ± 3.7%	44.3 ± 3.2%	CC[C@H](C)[C@H](NC(=O)[C@H](CCC(N)=O)NC(=O)[C@H](Cc1c[nH]cn1)NC(=O)[C@H](C)NC(=O)[C@H](CC(C)C)NC(=O)[C@H](CCCCN)NC(=O)[C@H](CCC(N)=O)NC(=O)[C@@H](NC(=O)[C@@H](NC(=O)[C@@H]1CSSC[C@H](NC(=O)CNC(=O)[C@H](Cc2ccccc2)NC(=O)[C@H](CO)NC(=O)[C@H](CCCNC(=N)N)NC(=O)[C@H](CC(C)C)NC(=O)CNC(=O)[C@H](CCC(N)=O)NC(=O)[C@H](Cc2ccccc2)NC(=O)[C@H](CC(N)=O)NC(=O)[C@H](CC(N)=O)NC(=O)[C@H](CCSC)NC(=O)[C@H](CO)NC(=O)[C@H](CCC(N)=O)NC(=O)[C@H](CCCNC(=N)N)NC(=O)[C@@H](N)Cc2ccc(O)cc2)C(=O)N[C@@H](CCCNC(=N)N)C(=O)N[C@@H](Cc2ccccc2)C(=O)NCC(=O)N[C@@H]([C@@H](C)O)C(=O)N1)[C@@H](C)O)C(C)C)C(=O)N[C@@H](Cc1ccc(O)cc1)C(=O)N[C@@H](CCC(N)=O)C(=O)N[C@@H](Cc1ccccc1)C(=O)N[C@H](C(=O)N[C@@H](CC(=O)O)C(=O)N[C@@H](CCCCN)C(=O)N[C@@H](CC(=O)O)C(=O)N[C@@H](CCCCN)C(=O)N[C@@H](CC(=O)O)C(=O)N[C@@H](CC(N)=O)C(=O)N[C@H](C(=O)N[C@@H](C)C(=O)N1CCC[C@H]1C(=O)N[C@@H](CCCNC(=N)N)C(=O)N[C@@H](CO)C(=O)N[C@@H](CCCCN)C(=O)N[C@H](C(=O)N[C@@H](CO)C(=O)N1CCC[C@H]1C(=O)N[C@@H](CCC(N)=O)C(=O)NCC(=O)N[C@@H](Cc1ccc(O)cc1)C(N)=O)[C@@H](C)CC)C(C)C)[C@@H](C)O [AM, adrenomedullin]
